From the CheMixHub viscosity set
± gives the uncertainty stated by the source.

Assay: xn = mol fraction of the nth substance listed

CCCC(C)CO (configuration not stated) + CO
298.15 K, 101.33 kPa
Conditions	viscosity [mPa·s]
x2 = 0.0849	4.645 ± 0.043
x2 = 0.2146	3.757 ± 0.034
x2 = 0.3193	3.053 ± 0.028
x2 = 0.4183	2.526 ± 0.023
x2 = 0.5192	2.018 ± 0.019
x2 = 0.6077	1.676 ± 0.016
x2 = 0.7069	1.296 ± 0.012
x2 = 0.8045	1.018 ± 0.0097
x2 = 0.9002	0.7552 ± 0.0074

FC(F)(Cl)C(F)(F)Cl + FC(F)Cl
101 kPa
Conditions	viscosity [mPa·s]
293.25 K, x2 = 0.182	0.3196 ± 0.0087
293.25 K, x2 = 0.457	0.2521 ± 0.0069
293.25 K, x2 = 0.568	0.2391 ± 0.0065
293.25 K, x2 = 0.663	0.2175 ± 0.0059
293.25 K, x2 = 0.748	0.1992 ± 0.0054
293.35 K, x2 = 0.947	0.1767 ± 0.0048
293.75 K, x2 = 0.329	0.2853 ± 0.0078
312.85 K, x2 = 0.457	0.2097 ± 0.0057
312.85 K, x2 = 0.663	0.1757 ± 0.0048
312.95 K, x2 = 0.182	0.2474 ± 0.0067
312.95 K, x2 = 0.821	0.1515 ± 0.0041
313.05 K, x2 = 0.568	0.1902 ± 0.0052
313.05 K, x2 = 0.748	0.1648 ± 0.0045
313.05 K, x2 = 0.947	0.141 ± 0.0038
313.15 K, x2 = 0.891	0.1461 ± 0.004
313.55 K, x2 = 0.329	0.2284 ± 0.0062

CCCCCCCCCCCC(=O)OCC + CCC1CCCCC1
viscosity [mPa·s], 100 kPa
Conditions	x2 = 0.1001	x2 = 0.1999	x2 = 0.3	x2 = 0.3999	x2 = 0.5001	x2 = 0.5999	x2 = 0.7	x2 = 0.7999	x2 = 0.9
293.15 K	3.07 ± 0.067	2.768 ± 0.06	2.476 ± 0.054	2.193 ± 0.048	1.919 ± 0.042	1.663 ± 0.036	1.429 ± 0.031	1.219 ± 0.027	1.023 ± 0.022
298.15 K	2.752 ± 0.06	2.485 ± 0.054	2.228 ± 0.049	1.977 ± 0.043	1.742 ± 0.038	1.519 ± 0.033	1.318 ± 0.029	1.134 ± 0.025	0.963 ± 0.021
303.15 K	2.479 ± 0.054	2.251 ± 0.049	2.027 ± 0.044	1.808 ± 0.039	1.597 ± 0.035	1.402 ± 0.031	1.222 ± 0.027	1.057 ± 0.023	0.901 ± 0.02
308.15 K	2.232 ± 0.049	2.036 ± 0.044	1.841 ± 0.04	1.651 ± 0.036	1.468 ± 0.032	1.296 ± 0.028	1.131 ± 0.025	0.981 ± 0.021	0.837 ± 0.018
313.15 K	2.033 ± 0.044	1.86 ± 0.041	1.686 ± 0.037	1.516 ± 0.033	1.352 ± 0.03	1.197 ± 0.026	1.05 ± 0.023	0.913 ± 0.02	0.786 ± 0.017
318.15 K	1.87 ± 0.041	1.716 ± 0.037	1.561 ± 0.034	1.406 ± 0.031	1.258 ± 0.027	1.119 ± 0.024	0.987 ± 0.022	0.864 ± 0.019	0.745 ± 0.016
323.15 K	1.697 ± 0.037	1.562 ± 0.034	1.423 ± 0.031	1.289 ± 0.028	1.159 ± 0.025	1.036 ± 0.023	0.92 ± 0.02	0.81 ± 0.018	0.7 ± 0.015

CCN(CC)c1ccccc1 + CCCCCCCO
viscosity [mPa·s], 100 kPa
Conditions	x1 = 0.1216	x1 = 0.2426	x1 = 0.3349	x1 = 0.4641	x1 = 0.5612	x1 = 0.6524	x1 = 0.7356	x1 = 0.8144	x1 = 0.9141
303.15 K	4.25 ± 0.12	3.593 ± 0.098	3.178 ± 0.087	2.706 ± 0.074	2.425 ± 0.066	2.21 ± 0.06	2.049 ± 0.056	1.923 ± 0.052	1.792 ± 0.049
308.15 K	3.658 ± 0.1	3.095 ± 0.085	2.735 ± 0.075	2.323 ± 0.064	2.079 ± 0.057	1.895 ± 0.052	1.763 ± 0.048	1.665 ± 0.045	1.577 ± 0.043
313.15 K	3.122 ± 0.085	2.622 ± 0.072	2.308 ± 0.064	1.96 ± 0.055	1.76 ± 0.049	1.617 ± 0.045	1.52 ± 0.042	1.455 ± 0.04	1.405 ± 0.038
318.15 K	2.671 ± 0.073	2.129 ± 0.06	1.826 ± 0.052	1.535 ± 0.044	1.398 ± 0.04	1.319 ± 0.037	1.278 ± 0.035	1.257 ± 0.034	1.243 ± 0.034

CCN(CC)c1ccccc1 + CC(=O)O
viscosity [mPa·s], 101 kPa
Conditions	298.15 K	318.15 K
x2 = 0.0992	2.081 ± 0.055	1.363 ± 0.036
x2 = 0.1985	2.343 ± 0.062	1.489 ± 0.04
x2 = 0.2959	2.722 ± 0.072	1.597 ± 0.043
x2 = 0.3986	3.462 ± 0.092	1.91 ± 0.051
x2 = 0.5022	4.639 ± 0.12	2.408 ± 0.065
x2 = 0.598	6.4 ± 0.17	3.1 ± 0.084
x2 = 0.7002	9.548 ± 0.25	4.198 ± 0.12
x2 = 0.7469	10.94 ± 0.29	4.721 ± 0.13
x2 = 0.7982	12 ± 0.31	5.159 ± 0.14
x2 = 0.8467	10.95 ± 0.29	4.965 ± 0.14
x2 = 0.9027	6.538 ± 0.17	3.527 ± 0.094

O=[N+]([O-])[O-].O=[N+]([O-])[O-].O=[N+]([O-])[O-].[Y+3] + O
viscosity [mPa·s], 101.3 kPa
Conditions	x1 = 0.008908	x1 = 0.01764	x1 = 0.02626	x1 = 0.03447	x1 = 0.05042	x1 = 0.06636	x1 = 0.08199
293.15 K	1.335 ± 0.0098	1.809 ± 0.015	2.474 ± 0.021	3.484 ± 0.037	7.18 ± 0.1	15.24 ± 0.24	33.5 ± 0.3
298.15 K	1.191 ± 0.0087	1.61 ± 0.012	2.197 ± 0.016	3.056 ± 0.023	6.164 ± 0.049	12.8 ± 0.11	26.72 ± 0.23
308.15 K	0.9655 ± 0.0075	1.305 ± 0.0095	1.765 ± 0.013	2.405 ± 0.016	4.677 ± 0.031	8.991 ± 0.062	18.14 ± 0.19

ClCCCCl + CCC(C)(C)O
viscosity [mPa·s], 101 kPa
Conditions	x1 = 0.101	x1 = 0.2021	x1 = 0.3082	x1 = 0.4082	x1 = 0.5066	x1 = 0.608	x1 = 0.7071	x1 = 0.808	x1 = 0.9003
298.15 K	2.779 ± 0.027	1.877 ± 0.017	1.393 ± 0.012	1.18 ± 0.0095	1.061 ± 0.0085	0.9826 ± 0.0079	0.9381 ± 0.0076	0.9128 ± 0.0075	0.9114 ± 0.0075
313.15 K	1.508 ± 0.02	1.164 ± 0.012	0.9559 ± 0.0086	0.8566 ± 0.0074	0.7978 ± 0.0068	0.7579 ± 0.0064	0.7469 ± 0.0063	0.7328 ± 0.0062	0.7431 ± 0.0064

CCOC(=O)CC(=O)OCC + O=C1CCCCC1
viscosity [mPa·s], 101 kPa
Conditions	x1 = 0.0713	x1 = 0.1285	x1 = 0.2155	x1 = 0.3058	x1 = 0.407	x1 = 0.5085	x1 = 0.6055	x1 = 0.7125	x1 = 0.8065	x1 = 0.9118
303.15 K	1.79 ± 0.039	1.76 ± 0.038	1.727 ± 0.037	1.694 ± 0.037	1.665 ± 0.036	1.631 ± 0.035	1.625 ± 0.035	1.635 ± 0.036	1.667 ± 0.036	1.706 ± 0.037
308.15 K	1.623 ± 0.035	1.591 ± 0.034	1.553 ± 0.034	1.515 ± 0.033	1.487 ± 0.032	1.458 ± 0.032	1.454 ± 0.032	1.465 ± 0.032	1.497 ± 0.032	1.533 ± 0.033
313.15 K	1.495 ± 0.032	1.463 ± 0.032	1.423 ± 0.031	1.386 ± 0.03	1.352 ± 0.029	1.333 ± 0.029	1.33 ± 0.029	1.341 ± 0.029	1.371 ± 0.03	1.406 ± 0.03

CCCCCCCCCCCCCC[P+](CCCCCC)(CCCCCC)CCCCCC.c1ccc2[n-]cnc2c1 + O
Conditions	viscosity [mPa·s]
298.15 K, 100 kPa, x2 = 0.759	207 ± 7

CC[N+](CC)(CC)CC.O=C([O-])CCCC(=O)O + O=S1(=O)CCCC1
101 kPa, x1 = 0.23
Conditions	viscosity [mPa·s]
303.15 K	150.1
313.15 K	90
323.15 K	58.9

CCCN(CCC)CCC + CCCCO
303.15 K, 101 kPa
Conditions	viscosity [mPa·s]
x1 = 0.01186	2.225 ± 0.015
x1 = 0.01943	2.201 ± 0.015
x1 = 0.03035	2.178 ± 0.014
x1 = 0.03999	2.157 ± 0.014
x1 = 0.05088	2.133 ± 0.014
x1 = 0.0617	2.112 ± 0.014
x1 = 0.07408	2.085 ± 0.014
x1 = 0.08019	2.074 ± 0.014
x1 = 0.08635	2.059 ± 0.014

Cc1ccc(C(C)C)c(O)c1 + CC12CCC(CC1)C(C)(C)O2
viscosity [mPa·s], 101.33 kPa
Conditions	x1 = 0.5865	x1 = 0.6068	x1 = 0.6272	x1 = 0.6462	x1 = 0.6661	x1 = 0.6858	x1 = 0.7057
293.15 K	43.71 ± 0.94	45.56 ± 0.98	46.15 ± 0.99	46.86 ± 1	46.28 ± 1	45.95 ± 0.99	44.22 ± 0.95
298.15 K	29.92 ± 0.75	30.8 ± 0.79	31.35 ± 0.79	31.41 ± 0.81	31.27 ± 0.8	30.92 ± 0.8	29.82 ± 0.77
